Values quoted from earlier work in patent publication US8697660B2, “Compounds and compositions for treating infection” (International Patent Holdings LLC, priority 2011, dated 2014).

Tested on: HIV-1

## Prunellin
  minimum inhibition concentration against HIV-1 in vitro: 2.2 mg/L
